Data as given in ChEMBL document CHEMBL5512692, “Colloidal Aggregation Confounds Cell-Based Covid-19 Antiviral Screens” (J Med Chem, 2024).
Calls of active or inactive are those of the source. No cut-off for these calls is given here.

Assays:
[1] = Inhibition of porcine heart MDH using oxaloacetic acid as substrate preincubated for 5 mins followed by substrate and […] addition and measured for 80 sec by absorbance based analysis; parameters: species or system Sus scrofa
Sus scrofa [2] = organism: Sus scrofa; test: (§1) Inhibition of porcine heart MDH using oxaloacetic acid as substrate assessed as enzyme recovery by measuring residual activity at approximately IC90 preincubated for 5 mins in presence of triton X-0.01% followed by substrate and NADPH addition and measured for 80 sec by absorbance based analysis relative to control; settings: time 380.0 sec
Sus scrofa [3] = organism: Sus scrofa; test: as §1, with “10 mg/ml BSA” for “triton X-0.01%”, “enzyme” for “substrate and NADPH”, “after 5 mins” for “for 80 sec”; settings: time 10.0 min
[4] = Absorption property of compound in DMEM media at 100 to 200 uM at 500 to 700 nm by luciferase assay; format: physicochemical; settings: dose 100-200 µM
SARS-CoV-2 [5] = test: Antiviral activity against luciferase independent SARS CoV-2 spike-pseudotyped lentivirus infected in human A549-hACE2-TMPRSS2 cells assessed as inhibition of viral entry at 31.6 to 63.3 uM compound spin-down for 1 hr followed by viral infection and measured after 24 hrs by luciferase reporter assay; format: functional, organism-based; settings: Severe acute respiratory syndrome coronavirus 2, dose 31.6-63.3 µM, time 25.0 hrs
SARS-CoV-2 [6] = test: Antiviral activity against SARS-CoV-2 infected in Vero E6 cells assessed as reduction in virus induced cytopathic effect pretreated for 30 mins followed by virus infection and measured after 72 hrs by MTS assay; format: functional, organism-based; settings: Severe acute respiratory syndrome coronavirus 2, Vero C1008
[7] = Aggregation property of compound in 50 mM KPi buffer at pH 7 assessed as critical aggregation concentration by DLS assay; format: physicochemical
[8] = Aggregation property of compound in DMEM media assessed as critical aggregation concentration by DLS assay; format: physicochemical
[9] = Inhibition of Beta-lactamase AmpC (unknown origin) using CENTA as chromogenic substrate preincubated for 5 mins followed by substrate addition and measured for 80 sec by absorbance based analysis; parameters: species or system Bacteria
Bacteria [10] = test: (§2) Inhibition of Beta-lactamase AmpC (unknown origin) using CENTA as chromogenic substrate assessed as enzyme recovery by measuring residual activity at approximately IC90 preincubated for 5 mins in presence of triton X-0.01% followed by substrate addition and measured for 80 sec by absorbance based analysis relative to control; settings: time 380.0 sec
Bacteria [11] = test: as §2, with “of 10 mg/ml BSA” for “of triton X-0.01%”, “by enzyme” for “by substrate”, “measured after 5 mins” for “measured for 80 sec”; settings: time 10.0 min
SARS-CoV-2 [12] = test: Antiviral activity against SARS CoV-2 spike-pseudotyped lentivirus infected in human A549-hACE2-TMPRSS2 cells assessed as inhibition of viral entry incubated for 24 hrs in absence of BSA by luciferase reporter assay; format: functional, organism-based; settings: Severe acute respiratory syndrome coronavirus 2, A549-hACE2-TMPRSS2, 24 h
SARS-CoV = test: Antiviral activity against HIV-Luc pseudotyped SARS CoV infected in Vero E6 cells assessed as reduction in virus entry preincubated for 30 mins followed by infection in cells and measured after 36 hrs by luciferase assay; format: functional, organism-based; settings: Severe acute respiratory syndrome-related coronavirus, Vero C1008

| Compound | IC50 [1] [nM] | Activity (Sus scrofa [2]) [%] | Activity (Sus scrofa [3]) [%] | Activity [4] | Activity (SARS-CoV-2 [5]) | EC50 (SARS-CoV-2 [6]) [nM] | CAC [7] [µM] | CAC [8] [µM] | IC50 [9] [nM] | Activity (Bacteria [10]) [%] | Activity (Bacteria [11]) [%] | EC50 (SARS-CoV-2 [12]) [nM] | EC50 (SARS-CoV) [nM] |
| --- | --- | --- | --- | --- | --- | --- | --- | --- | --- | --- | --- | --- | --- |
| Cc1ccc(C(=O)Nc2ccc(S(=O)(=O)O)c3cc(S(=O)(=O)O)cc(S(=O)(=O)O)c23)cc1NC(=O)c1cccc(NC(=O)Nc2cccc(C(=O)Nc3cc(C(=O)Nc4ccc(S(=O)(=O)O)c5cc(S(=O)(=O)O)cc(S(=O)(=O)O)c45)ccc3C)c2)c1 [SURAMIN] | 1200 | -4.8 | 91 | Not Active | Active | 20000 |  |  |  |  |  |  |  |
| O=C(OC[C@H]1O[C@@H](OC(=O)c2cc(O)c(O)c(O)c2)[C@H](OC(=O)c2cc(O)c(O)c(O)c2)[C@@H](OC(=O)c2cc(O)c(O)c(O)c2)[C@@H]1O)c1cc(O)c(O)c(O)c1 |  |  |  | Not Active |  |  | 12 | 9.8 | 13000 | 51 | 80 | 70 | 2860 |
